Source: publication PMC5583328, “Probing the potential of mucus permeability to signify preterm birth risk” (Scientific Reports, 2017)
Where a SMILES comes first, the peptide text is derived from it. The star is where a group is joined. 6FAM = O=C1OC2(c3ccc(O)cc3Oc3cc(O)ccc32)c2cc(C(=O)*)ccc21

Assay: Microfluidic peptide partitioning and transport through cervical mucus
Type: in vitro ADME, human
Conditions: for average maximum concentration of peptide accumulated inside mucus (enrichment at mucus-buffer interface): 15-min experiment; for average maximum concentration of peptide accumulated inside mucus (enrichment at mucus-buffer interface) / concentration of the peptide at the end of the channel (450 μm): mean (SD)
Experimental: We quantified partitioning and transport of the reporter peptides through mucus using a previously described microfluidics device, [38]. With this setup, a continuous aqueous flow of fluorescent peptides is generated within a micron-scale channel at carefully controlled rates adjacent to a stable mucus layer. The small sample volume (5 μL) required for this system is ideally suited for the study of native mucus samples, which are typically not available in large volumes. The peptide solutes partition into the mucus layer, and their subsequent transport is monitored with fluorescence microscopy (Fig. 3a and b).
We quantified the transport of (+) and (−) charged peptides in mucus from 20 ovulating, 15 low-risk pregnant, and 9 high-risk pregnant patients (Table 2; see the table caption for specific information on cohort composition). […] Peptides at a concentration of 4 μM were introduced into the microfluidic channel in the presence of the mucus sample or in the presence of buffer. […] Concentration profiles of the fluorescent peptides were acquired through the center cross - section of the mucus channel (Fig. 3a,b, Methods).
Peptides were synthesized, purified, and identified by the Swanson Biotechnology Center at the Koch Institute at MIT (Cambridge, MA, USA). […] Peptides were purified using reverse-phase high performance liquid chromatography. […] Before use in the microfluidic device, peptides were dissolved in H7 buffer (20 mM HEPES, 20 mM NaCl, pH 7) at a final concentration of 4 μM.
Microfluidic polydimethylsiloxane devices were designed and fabricated as previously described, [38], and cured at 95 °C for 48–72 h prior to use. Devices bonded to microscope slides were mounted on an inverted epifluorescence microscope (IX-71, Olympus American, Central Valley, PA; or Zeiss Observer Z1) equipped with a 5x or 10x objective and LED light source or mercury lamp (excitation at 450–495 nm or 475 nm, respectively). All channels were washed with H7 buffer before use. The two valves were closed or opened by applying or releasing pressure with a 3-mL syringe connected to the valves via polytetrafluoroethylene tubing. All experiments were carried out at room temperature. One to two microliters of sample were injected to fill the main channel. The two valves were closed while the inlet and outlet channels were washed with H7 buffer. The top valve was opened, exposing the mucus interface. Twenty-five microliters of peptide solution were added to the reservoir of each inlet. The flow rate of the peptide solution into the inlet channel was determined by gravitational flow. […] At least two successful experimental replicates were obtained for each patient mucus sample, except for one sample of cervical mucus, for which only one measurement was obtained.
Images were analyzed using ImageJ (v1.47; Wayne Rasband, National Institutes of Health, Bethesda, MD, USA; http://imagej.nih.gov/ij) and MATLAB software.

| SMILES | average maximum concentration of peptide accumulated inside mucus (enrichment at mucus-buffer interface) (mucus from high-risk pregnant patients (n = 9), microfluidic channel, 4 μM FAM-labelled peptide in H7 buffer pH 7, room temperature, epifluorescence read-out) | average maximum concentration of peptide accumulated inside mucus (enrichment at mucus-buffer interface) (mucus from low-risk pregnant women (n = 15), microfluidic channel, 4 μM FAM-labelled peptide in H7 buffer pH 7, room temperature, epifluorescence read-out) | average maximum concentration of peptide accumulated inside mucus (enrichment at mucus-buffer interface) (mucus from ovulating non-pregnant women (n = 20), microfluidic channel, 4 μM FAM-labelled peptide in H7 buffer (20 mM HEPES, 20 mM NaCl, pH 7), room temperature, epifluorescence read-out) | concentration of the peptide at the end of the channel (450 μm) (mucus from high-risk pregnant patients (n = 9), 4 μM FAM-labelled peptide in H7 buffer pH 7, room temperature, epifluorescence read-out) | retention (enrichment) of the peptide at the mucus barrier interface (mucus from high-risk pregnant patients (n = 9), microfluidic channel, 4 μM FAM-labelled peptide in H7 buffer pH 7, room temperature) | concentration of the peptide at the end of the channel (450 μm) (mucus from low-risk pregnant patients (n = 15), 4 μM FAM-labelled peptide in H7 buffer pH 7, room temperature, epifluorescence read-out) | peptide concentration gradient through the mucus layer compared with buffer (mucus from ovulating women (n = 20), microfluidic channel, 4 μM FAM-labelled peptide in H7 buffer pH 7, room temperature, epifluorescence read-out) |
| --- | --- | --- | --- | --- | --- | --- | --- |
| C[C@H](NC(=O)c1ccc2c(c1)C1(OC2=O)c2ccc(O)cc2Oc2cc(O)ccc21)C(=O)N[C@@H](CCCCN)C(=O)N[C@@H](C)C(=O)N[C@@H](CCCCN)C(=O)N[C@@H](C)C(=O)N[C@@H](CCCCN)C(=O)N[C@@H](C)C(=O)N[C@@H](CCCCN)C(=O)N[C@@H](C)C(=O)N[C@@H](CCCCN)C(=O)N[C@@H](C)C(=O)N[C@@H](CCCCN)C(=O)N[C@@H](C)C(=O)N[C@@H](CCCCN)C(=O)N[C@@H](C)C(=O)N[C@@H](CCCCN)C(=O)N[C@@H](C)C(=O)N[C@@H](CCCCN)C(=O)N[C@@H](C)C(=O)N[C@@H](CCCCN)C(N)=O [(+) peptide] (6FAM-AKAKAKAKAKAKAKAKAKAK-NH2) | 19.3 µM | 36.9 µM | 10.6 µM | – | – | – | – |
| C[C@H](NC(=O)c1ccc2c(c1)C1(OC2=O)c2ccc(O)cc2Oc2cc(O)ccc21)C(=O)N[C@@H](CCC(=O)O)C(=O)N[C@@H](C)C(=O)N[C@@H](CCC(=O)O)C(=O)N[C@@H](C)C(=O)N[C@@H](CCC(=O)O)C(=O)N[C@@H](C)C(=O)N[C@@H](CCC(=O)O)C(=O)N[C@@H](C)C(=O)N[C@@H](CCC(=O)O)C(=O)N[C@@H](C)C(=O)N[C@@H](CCC(=O)O)C(=O)N[C@@H](C)C(=O)N[C@@H](CCC(=O)O)C(=O)N[C@@H](C)C(=O)N[C@@H](CCC(=O)O)C(=O)N[C@@H](C)C(=O)N[C@@H](CCC(=O)O)C(=O)N[C@@H](C)C(=O)N[C@@H](CCC(=O)O)C(N)=O [(−) peptide] (6FAM-AEAEAEAEAEAEAEAEAEAE-NH2) | – | – | – | 1100 nM | not detected in any of the high-risk samples | 500 nM | nearly identical with or without mucus present |
